Starred links: 1 amine or outer side, 2 acyl side, 3 side chain; linkers in the order of their positions; H or OH if unused. Positions of bridges follow the written chain, without caps; N, C: chain ends. Non-standard residues stand in square brackets, D forms with d. Residues, ends and D or L forms follow the SMILES beside them. *: point of attachment. hPhe(3,5-F2-4-CF3) = N[C@@H](CCc1cc(F)c(C(F)(F)F)c(F)c1)C(=O)O; hPhe(3-Cl-4-CF3) = N[C@@H](CCc1ccc(C(F)(F)F)c(Cl)c1)C(=O)O; NMePhe(4-CF3) = CN[C@@H](Cc1ccc(C(F)(F)F)cc1)C(=O)O; hPhe(4-CF3) = N[C@@H](CCc1ccc(C(F)(F)F)cc1)C(=O)O; NEtPhe(4-Me) = CCN[C@@H](Cc1ccc(C)cc1)C(=O)O; NMePhe(4-Cl) = CN[C@@H](Cc1ccc(Cl)cc1)C(=O)O; NMePhe(4-F) = CN[C@@H](Cc1ccc(F)cc1)C(=O)O; hPhe(4-Cl) = N[C@@H](CCc1ccc(Cl)cc1)C(=O)O; NMedβ3hAla = C[C@H](CC(=O)[*:2])N(C)[*:1]; Phe(3-Cl) = N[C@@H](Cc1cccc(Cl)c1)C(=O)O; NMeGly(cPent) = CN[C@H](C(=O)O)C1CCCC1; Phe(3-I) = N[C@@H](Cc1cccc(I)c1)C(=O)O; Phe(3-Me) = Cc1cccc(C[C@H](N)C(=O)O)c1; Pro(4,4-F2) = O=C(O)[C@@H]1CC(F)(F)CN1; NMeY = CN[C@@H](Cc1ccc(O)cc1)C(=O)O; NMeCha = CN[C@@H](CC1CCCCC1)C(=O)O; NMehLeu = CN[C@@H](CCC(C)C)C(=O)O; NMeChg = CN[C@H](C(=O)O)C1CCCCC1; NMeF = CN[C@@H](Cc1ccccc1)C(=O)O; NMeI = CC[C@H](C)[C@H](NC)C(=O)O; NMeD = CN[C@@H](CC(=O)O)C(=O)O; NMeL = CN[C@@H](CC(C)C)C(=O)O; NMeV = CN[C@H](C(=O)O)C(C)C; d(β3hA) = C[C@@H](N)CC(=O)O; NMeS = CN[C@@H](CO)C(=O)O; NMeA = CN[C@@H](C)C(=O)O; Piperidide = C1CCN(*)CC1; Pyrrolidide = C1CCN(*)C1; dNMeA = CN[C@H](C)C(=O)O; Ac5c = NC1(C(=O)O)CCCC1; Aze = O=C(O)[C@@H]1CCN1; Ac4c = NC1(C(=O)O)CCC1; CH2CMe2OH = CC(C)(O)C*; Cyclobutyl = C1CC(*)C1; βAla = NCCC(=O)O; Sar = CNCC(=O)O
Molecular target: T1, Kras and SOS1 (biotin-tagged human Kras loaded with GDP, His-tagged human SOS1) (Homo sapiens, UniProt P01116, G12D)
T1 construct: made in house; host or cells: E. coli (stated for Kras only)
Assay: Protein-protein interaction inhibition between Kras and SOS1 (KrasGl2D-SOS PPI) using AlphaScreen
Assay type: binding
Details: AlphaScreen; biotin-tagged human Kras loaded with GDP, His-tagged human SOS1; read-out: KRAS G12D-SOS PPI IC50
In short: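 Binding between SOS1 and Kras is detected as bead-proximity luminescence: illuminate Ni-conjugated donors (680 nm), collect 520-620 nm emission from streptavidin-conjugated acceptors; Kras carries biotin and GDP loaded after purification, SOS1 carries a His tag.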

T1 sequence (P01116 1-188 isoform P01116-2 G12D): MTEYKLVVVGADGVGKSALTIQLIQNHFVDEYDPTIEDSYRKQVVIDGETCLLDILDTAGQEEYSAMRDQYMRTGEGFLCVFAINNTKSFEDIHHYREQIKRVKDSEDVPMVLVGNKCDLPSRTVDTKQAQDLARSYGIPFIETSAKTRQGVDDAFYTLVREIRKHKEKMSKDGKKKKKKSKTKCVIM

Structure (SMILES)	IC50 [nM]
CC[C@H](C)[C@@H]1NC(=O)[C@H](CC(C)C)N(C)C(=O)C[C@@H](C(=O)N(C)C)N(C)C(=O)[C@H]([C@@H](C)CC)N(C)C(=O)C2(CCCC2)NC(=O)[C@@H]2CCCN2C(=O)[C@H](CCc2cc(F)c(C(F)(F)F)c(F)c2)NC(=O)CN(C)C(=O)[C@H](Cc2ccc(C)cc2)N(CC)C(=O)[C@@H]2CCN2C(=O)[C@H](C)N(C)C1=O [Compound 571] ([NMeL]I[NMeA][Aze][NEtPhe(4-Me)][Sar][hPhe(3,5-F2-4-CF3)]P[Ac5c][NMeI][NMeD]-NMe2; lactam N-11)	0.83
CC[C@H](C)[C@@H]1NC(=O)[C@H](CC(C)C)N(C)C(=O)C[C@@H](C)NC(=O)[C@H](C(C)C)N(C)C(=O)C2(CCCC2)NC(=O)[C@@H]2CCCN2C(=O)[C@H](CCc2ccc(Cl)cc2)NC(=O)CN(C)C(=O)[C@H](CC2CCCCC2)N(C)C(=O)CN(C)C(=O)CN(C)C1=O [Compound 576] (cyclo([Ac5c][NMeV][d(β3hA)][NMeL]I[Sar][Sar][NMeCha][Sar][hPhe(4-Cl)]P))	230
CC[C@H](C)[C@@H]1NC(=O)[C@H](CC(C)C)N(C)C(=O)C[C@@H](C(=O)N2CCCCC2)N(C)C(=O)[C@H](CC2CCCCC2)N(C)C(=O)C2(CCCC2)NC(=O)[C@@H]2CCCN2C(=O)[C@H](CCc2ccc(C(F)(F)F)c(Cl)c2)NC(=O)CN(C)C(=O)[C@H](CC2CCCCC2)N(C)C(=O)CN(C)C(=O)CN(C)C1=O [Compound 577] ([NMeL]I[Sar][Sar][NMeCha][Sar][hPhe(3-Cl-4-CF3)]P[Ac5c][NMeCha][NMeD]-Piperidide; lactam N-11)	21
CC[C@H](C)[C@@H]1NC(=O)[C@H](CC2CCCCC2)N(C)C(=O)C[C@@H](C)NC(=O)[C@H](CC(C)C)N(C)C(=O)C2(CCCC2)NC(=O)[C@@H]2CCCN2C(=O)[C@H](CCc2ccc(C(F)(F)F)cc2)NC(=O)CN(C)C(=O)[C@H](Cc2ccc(Cl)cc2)N(C)C(=O)CN(C)C(=O)CN(C)C1=O [Compound 578] (cyclo([Ac5c][NMeL][d(β3hA)][NMeCha]I[Sar][Sar][NMePhe(4-Cl)][Sar][hPhe(4-CF3)]P))	120
CC[C@H](C)[C@@H]1NC(=O)[C@H](CC(C)C)N(C)C(=O)C[C@@H](C)N(C)C(=O)[C@H](C2CCCCC2)N(C)C(=O)C2(CCC2)NC(=O)[C@@H]2CC(F)(F)CN2C(=O)[C@H](CCc2cc(F)c(C(F)(F)F)c(F)c2)NC(=O)CN(C)C(=O)[C@H](Cc2ccc(C(F)(F)F)cc2)N(C)C(=O)CN(C)C(=O)CN(C)C1=O [Compound 579] (cyclo([Ac4c][NMeChg][NMedβ3hAla][NMeL]I[Sar][Sar][NMePhe(4-CF3)][Sar][hPhe(3,5-F2-4-CF3)][Pro(4,4-F2)]))	17
CC[C@H](C)[C@@H]1NC(=O)[C@H](C)N(C)C(=O)C[C@@H](C(=O)N2CCCC2)NC(=O)[C@H](CC(C)C)N(C)C(=O)[C@H](COCC(C)(C)O)N(C)C(=O)[C@H](CC(C)C)NC(=O)[C@H](CCc2ccc(C(F)(F)F)cc2)NC(=O)CN(C)C(=O)[C@H](Cc2ccc(Cl)cc2)N(C)C(=O)CN(C)C(=O)CN(C)C1=O [Compound 582] ([NMeA]I[Sar][Sar][NMePhe(4-Cl)][Sar][hPhe(4-CF3)]L[NMeS](CH2CMe2OH)[NMeL]D-Pyrrolidide; lactam N-11)	24
CC[C@H](C)[C@@H]1NC(=O)[C@H](C)N(C)C(=O)C[C@@H](C)NC(=O)[C@H](C2CCCC2)N(C)C(=O)C2(CCCC2)NC(=O)[C@@H]2CCCN2C(=O)[C@H](CCc2ccc(C(F)(F)F)c(Cl)c2)NC(=O)[C@@H](C)N(C)C(=O)[C@H](Cc2ccc(F)cc2)N(C)C(=O)[C@@H]2CCN2C(=O)[C@H](C)N(C)C1=O [Compound 584] (cyclo([Ac5c][NMeGly(cPent)][d(β3hA)][NMeA]I[NMeA][Aze][NMePhe(4-F)][dNMeA][hPhe(3-Cl-4-CF3)]P))	31
CC[C@H](C)[C@@H]1NC(=O)[C@H](CC(C)C)N(C)C(=O)C[C@@H](C(=O)N2CCCCC2)N(C)C(=O)[C@H](COC2CCC2)N(C)C(=O)C2(CCCC2)NC(=O)[C@@H]2CCCN2C(=O)[C@H](CCc2ccc(C(F)(F)F)c(Cl)c2)NC(=O)CN(C)C(=O)[C@H](CC2CCCCC2)N(C)C(=O)CN(C)C(=O)CN(C)C1=O [Compound 585] ([NMeL]I[Sar][Sar][NMeCha][Sar][hPhe(3-Cl-4-CF3)]P[Ac5c][NMeS](Cyclobutyl)[NMeD]-Piperidide; lactam N-11)	94
CC[C@H](C)[C@@H]1NC(=O)[C@H](CC(C)C)N(C)C(=O)C[C@@H](C)NC(=O)[C@H](CCC(C)C)N(C)C(=O)C2(CCCC2)NC(=O)[C@@H]2CCCN2C(=O)[C@H](CCc2ccc(C(F)(F)F)c(Cl)c2)NC(=O)CN(C)C(=O)[C@H](CC2CCCCC2)N(C)C(=O)CN(C)C(=O)CN(C)C1=O [Compound 586] (cyclo([Ac5c][NMehLeu][d(β3hA)][NMeL]I[Sar][Sar][NMeCha][Sar][hPhe(3-Cl-4-CF3)]P))	160
CC[C@H](C)[C@@H]1NC(=O)[C@H](CC(C)C)N(C)C(=O)C[C@@H](C(=O)N2CCCCC2)N(C)C(=O)[C@H](C2CCCCC2)N(C)C(=O)[C@H](C)NC(=O)[C@@H]2CCCN2C(=O)[C@H](CCc2ccc(C(F)(F)F)c(Cl)c2)NC(=O)CN(C)C(=O)[C@H](CC2CCCCC2)N(C)C(=O)CN(C)C(=O)CN(C)C1=O [Compound 591] ([NMeL]I[Sar][Sar][NMeCha][Sar][hPhe(3-Cl-4-CF3)]PA[NMeChg][NMeD]-Piperidide; lactam N-11)	2.1
CC[C@H](C)[C@@H]1NC(=O)[C@H](CC(C)C)N(C)C(=O)C[C@@H](C)NC(=O)[C@H](C2CCCCC2)N(C)C(=O)C2(CCCC2)NC(=O)[C@@H]2CCCN2C(=O)[C@H](CCc2ccc(C(F)(F)F)c(Cl)c2)NC(=O)CN(C)C(=O)[C@H](CC2CCCCC2)N(C)C(=O)CN(C)C(=O)CN(C)C1=O [Compound 593] (cyclo([Ac5c][NMeChg][d(β3hA)][NMeL]I[Sar][Sar][NMeCha][Sar][hPhe(3-Cl-4-CF3)]P))	34
CC[C@H](C)[C@@H]1NC(=O)[C@H](C)N(C)C(=O)C[C@@H](C(=O)N2CCCC2)N(C)C(=O)[C@H](CC(C)C)NC(=O)[C@H](Cc2ccccc2)N(C)C(=O)[C@H](C)NC(=O)[C@H](Cc2cccc(I)c2)NC(=O)CN(C)C(=O)[C@H](Cc2ccc(OC)cc2)N(C)C(=O)[C@@H]2CCN2C(=O)[C@H](C)N(C)C1=O [Compound 604] ([NMeA]I[NMeA][Aze][NMeY](Me)[Sar][Phe(3-I)]A[NMeF]L[NMeD]-Pyrrolidide; lactam N-11)	16
CC[C@H](C)[C@@H]1NC(=O)CCNC(=O)[C@H](COCC(C)(C)O)N(C)C(=O)[C@H](C2CCCCC2)N(C)C(=O)C2(CCCC2)NC(=O)[C@@H]2CCCN2C(=O)[C@H](CCc2ccc(C(F)(F)F)c(Cl)c2)NC(=O)CN(C)C(=O)[C@H](CC2CCCCC2)N(C)C(=O)CN(C)C(=O)CN(C)C1=O [Compound 605] (cyclo([Ac5c][NMeChg][NMeS](CH2CMe2OH)[βAla]I[Sar][Sar][NMeCha][Sar][hPhe(3-Cl-4-CF3)]P))	9
CC[C@H](C)[C@@H]1NC(=O)[C@H](C)N(C)C(=O)C[C@@H](C(=O)N2CCCC2)NC(=O)[C@H](C(C)C)N(C)C(=O)[C@H](Cc2ccccc2)N(C)C(=O)[C@H](Cc2cccc(C)c2)NC(=O)[C@H](Cc2cccc(Cl)c2)NC(=O)CN(C)C(=O)[C@H](Cc2ccc(Cl)cc2)N(C)C(=O)CN(C)C(=O)CN(C)C1=O [Compound 609] ([NMeA]I[Sar][Sar][NMePhe(4-Cl)][Sar][Phe(3-Cl)][Phe(3-Me)][NMeF][NMeV]D-Pyrrolidide; lactam N-11)	110
